Source: PubChem BioAssay AID504687 (Sanford-Burnham Center for Chemical Genomics, 2011)
Active and inactive are the calls of the source. How the calls were made is not given here.

The compounds below were run against Ubiquitin-conjugating enzyme E2 N (Homo sapiens) (UniProt P61088) (assay: UBC13 polyubiquitin chain formation inhibitors, SAR follow-up, biochemical, TR-FRET (AID 504687)).
Chain of Ubiquitin-conjugating enzyme E2 N (Homo sapiens) (P61088 whole entry, looked up): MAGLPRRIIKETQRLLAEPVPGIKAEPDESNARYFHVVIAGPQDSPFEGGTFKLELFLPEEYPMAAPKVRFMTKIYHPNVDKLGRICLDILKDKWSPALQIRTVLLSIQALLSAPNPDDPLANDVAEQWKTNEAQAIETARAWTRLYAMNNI
`O=C(C1CCN(c2ncnc3c2nc2n3CCCCC2)CC1)N1CCC(Cc2ccccc2)CC1` showed an IC50 of 15 µM. With `CN(C)CCCN(C(=O)c1ccc(S(=O)(=O)N2CCCC2)cc1)c1nc2ccc(Br)cc2s1` the IC50 was 6.86 µM. In the case of `O=C(c1ccco1)N1CCN(C(=O)C2CCN(c3ncnc4c3nc3n4CCCCC3)CC2)CC1`, the IC50 is reported as “inactive”. `CCOc1ccc2nc(N(CCCN(C)C)C(=O)c3ccc(C(=O)c4ccccc4)cc3)sc2c1` gave an IC50 of 3.4 µM. `CCOc1cccc2sc(N(CCCN(C)C)C(=O)c3ccc(S(=O)(=O)N(CC)Cc4ccccc4)cc3)nc12` was tested, and the IC50 was 6.56 µM. In the case of `COc1ccc(CCNC(=O)CCCCCN2C(=O)c3ccccc3C2=O)cc1OC`, the IC50 is reported as “inactive”. With `CCOc1ccc(NC(=O)Cn2c(=O)n(CCCC(=O)NC3CCN(Cc4ccccc4)CC3)c(=O)c3ccccc32)cc1` the IC50 was 3.06 µM. For `Cc1ccc(-c2oc3ncnc(N)c3c2-c2ccc(C)cc2)cc1`, the IC50 was 2.7 µM. Work on `Cc1ccc2nc(N(CCCN(C)C)C(=O)c3ccc(S(=O)(=O)N4CCc5ccccc5C4)cc3)sc2c1` yielded an IC50 of 4.83 µM. `O=C(NCC1CCN(Cc2cccc(Cl)c2)CC1)C1CCCN(c2ncnc3c2nc2n3CCCCC2)C1` (stereo unspecified) showed an IC50 of 0.93 µM. `CN(C)CCCN(C(=O)c1ccc(S(=O)(=O)N2CCc3ccccc3C2)cc1)c1nc2ccc(F)cc2s1` showed an IC50 of 8.1 µM. With `CCN(Cc1ccccc1)S(=O)(=O)c1ccc(C(=O)N(CCCN(C)C)c2nc3cc4c(cc3s2)OCO4)cc1` the IC50 was 4.47 µM. `CN(C)CCCN(C(=O)c1ccc(C(=O)c2ccccc2)cc1)c1nc2cc3c(cc2s1)OCO3` showed an IC50 of 6.57 µM. With `COc1cccc(NC(=O)CCCCCN2C(=O)c3cccc([N+](=O)[O-])c3C2=O)c1` the IC50 was > 100 µM (inactive). `COC(=O)c1ccc(OCC(O)CN2CCN(CCN3C(=O)c4cccc5cccc(c45)C3=O)CC2)cc1` (stereo unspecified) gave an IC50 of 4.61 µM. In the case of `CCOC(=O)c1c(NC(=O)COc2ccccc2C#N)sc2c1CC(C)(C)NC2(C)C`, the IC50 is reported as 2.35 µM. Work on `O=C(NCC1CCN(Cc2ccccc2F)CC1)C1CCCN(c2ncnc3c2nc2n3CCCCC2)C1` (stereo unspecified) yielded an IC50 of 10.7 µM. Work on `O=C(NCCCN1CCN(c2ccc(F)cc2)CC1)C1CCCN(c2ncnc3c2nc2n3CCCCC2)C1` (stereo unspecified) yielded an IC50 of 1.92 µM. For `Cc1ccc(C)c(CN2CCC(CNC(=O)C3CCCN(c4ncnc5c4nc4n5CCCCC4)C3)CC2)c1` (stereo unspecified), the IC50 was 3.42 µM. In the case of `CC(=O)c1ccccc1OCC(O)CN1CCN(CCN2C(=O)c3cccc4cccc(c34)C2=O)CC1` (stereo unspecified), the IC50 is reported as 10.5 µM. `Cc1ccccc1NC(=S)NC(=O)CCCCCN1C(=O)c2ccccc2C1=O` was tested, and the IC50 was > 100 µM (inactive). With `CCN(Cc1ccccc1)S(=O)(=O)c1ccc(C(=O)N(CCCN(C)C)c2nc3cc(C)cc(C)c3s2)cc1` the IC50 was 4.07 µM. `O=C(CCCn1c(=O)c2ccccc2n(Cc2ccccc2F)c1=O)NC1CCN(Cc2ccccc2)CC1` gave an IC50 of 0.45 µM. In the case of `COc1ccc(NC(=O)CCCCCN2C(=O)c3cccc([N+](=O)[O-])c3C2=O)cc1`, the IC50 is reported as > 100 µM (inactive). For `O=C(CCCCn1c(=O)c2ccccc2n(Cc2ccccc2)c1=O)NC1CCN(Cc2ccccc2)CC1`, the IC50 was 1.63 µM. For `CN(CCNC(=O)C1CCN(c2ncnc3c2nc2n3CCCCC2)CC1)Cc1ccccc1`, the IC50 was 1.65 µM. `O=C(CCCCn1c(=O)c2ccccc2n(Cc2ccccc2F)c1=O)NC1CCN(Cc2ccccc2)CC1` was tested, and the IC50 was 2.99 µM. `COc1ccccc1NC(=S)NC(=O)CCCCCN1C(=O)c2ccccc2C1=O` was tested, and the IC50 was > 100 µM (inactive). Compound `CC1CCCC(C)N1CCCNC(=O)C1CCCN(c2ncnc3c2nc2n3CCCCC2)C1` (stereo unspecified) has an IC50 of 12.3 µM. `CCc1ccc2nc(N(CCCN(C)C)C(=O)c3ccc(S(=O)(=O)N4CCc5ccccc5C4)cc3)sc2c1` was tested, and the IC50 was 2.8 µM. Work on `O=C1c2cccc3cccc(c23)C(=O)N1CCN1CCN(CC(O)COCc2ccc(Cl)cc2)CC1` (stereo unspecified) yielded an IC50 of 1.07 µM. Compound `COc1ccc(-c2oc3ncnc(N)c3c2-c2ccccc2)cc1` has an IC50 of 2.06 µM. `Cc1cccc(OCC(O)CN2CCN(CCN3C(=O)c4cccc5cccc(c45)C3=O)CC2)c1C` (stereo unspecified) was tested, and the IC50 was 4.76 µM. `Cc1cc(OCC(O)CN2CCN(CCN3C(=O)c4cccc5cccc(c45)C3=O)CC2)ccc1C(C)C` (stereo unspecified) gave an IC50 of 9.39 µM. `O=C(CCCCCN1C(=O)c2ccccc2C1=O)Nc1ccc(S(=O)(=O)Nc2ncccn2)cc1` was tested, and the IC50 was > 100 µM (inactive). With `CN(C)CCCN(C(=O)c1ccc2c(c1)CCCC2)c1nc2ccc(Cl)cc2s1` the IC50 was 10.7 µM. `CC1(C)Cc2c(sc(NC(=O)COc3ccc(Cl)cc3Cl)c2C(N)=O)C(C)(C)N1` gave an IC50 of 1.66 µM. For `CC1CN(S(=O)(=O)c2ccc(NC(=O)CCCCCN3C(=O)c4ccccc4C3=O)cc2)CC(C)O1` (stereo unspecified), the IC50 was “inactive”. In the case of `O=C1c2cccc3cccc(c23)C(=O)N1CCN1CCN(CC(O)COc2ccccc2)CC1` (stereo unspecified), the IC50 is reported as 17.6 µM. Work on `CC(C)(C)c1ccc(OCC(O)CN2CCN(CCN3C(=O)c4cccc5cccc(c45)C3=O)CC2)cc1` (stereo unspecified) yielded an IC50 of 9.47 µM. For `CCN(Cc1ccccc1)S(=O)(=O)c1ccc(C(=O)N(CCCN(C)C)c2nc3cc4c(cc3s2)OCCO4)cc1`, the IC50 was 1.51 µM. With `CCOc1ccc2nc(N(CCCN(C)C)C(=O)c3ccc(S(=O)(=O)N4CCc5ccccc5C4)cc3)sc2c1` the IC50 was 3.19 µM. For `O=C(CCCCCN1C(=O)c2ccccc2C1=O)NCc1ccccc1`, the IC50 was 15.8 µM. `Cc1cccc(C)c1NC(=O)Cn1c(=O)n(CCCC(=O)NC2CCN(Cc3ccccc3)CC2)c(=O)c2ccccc21` was tested, and the IC50 was 1.69 µM. Work on `O=C(c1ccc(S(=O)(=O)N2CCCC2)cc1)N1CCC(CN2C(=O)c3cccc4cccc(c34)C2=O)CC1` yielded an IC50 of 4.19 µM. With `O=C(CCCn1c(=O)c2ccccc2n(Cc2cccc(F)c2)c1=O)NC1CCN(Cc2ccccc2)CC1` the IC50 was 0.51 µM. `CN(C)CCCN(C(=O)c1ccc(S(=O)(=O)N(C)Cc2ccccc2)cc1)c1nc2cc3c(cc2s1)OCO3` was tested, and the IC50 was 2.53 µM. `CC(=O)c1ccc(OCC(O)CN2CCN(CCN3C(=O)c4cccc5cccc(c45)C3=O)CC2)cc1` (stereo unspecified) was tested, and the IC50 was 2.28 µM. `COc1ccc2sc(N(CCCN(C)C)C(=O)c3ccc(S(=O)(=O)N4CCc5ccccc5C4)cc3)nc2c1` was tested, and the IC50 was 5.62 µM. In the case of `O=C(C1CCN(c2ncnc3c2nc2n3CCCCC2)CC1)N1CCN(c2ccccc2)CC1`, the IC50 is reported as “inactive”. `Cc1cc(C)cc(OCCNC(=O)CCCCCN2C(=O)c3ccccc3C2=O)c1` was tested, and the IC50 was > 100 µM (inactive). `COc1ccc(CCNC(=O)CCCCCN2C(=O)c3ccccc3C2=O)cc1` was tested, and the IC50 was “inactive”. Compound `COc1ccc(OC)c2sc(N(CCCN(C)C)C(=O)c3ccc(S(=O)(=O)N4CCc5ccccc5C4)cc3)nc12` has an IC50 of 0.79 µM. In the case of `O=C1c2cccc3cccc(c23)C(=O)N1CC1CCN(CC(O)COc2ccc3ccccc3c2)CC1` (stereo unspecified), the IC50 is reported as 3.32 µM. `CCCOC(=O)c1ccc(NC(=O)CCCCCN2C(=O)c3ccccc3C2=O)cc1` was tested, and the IC50 was > 100 µM (inactive). `CCCCN(CC)S(=O)(=O)c1ccc(C(=O)N(CCCN(C)C)c2nc3cc(C)cc(C)c3s2)cc1` gave an IC50 of 6.23 µM. `O=C1c2cccc3cccc(c23)C(=O)N1CCN1CCN(CC(O)COc2ccc(Cl)cc2)CC1` (stereo unspecified) gave an IC50 of 0.9 µM. Compound `CCOc1cccc2sc(N(CCCN(C)C)C(=O)c3ccc(S(=O)(=O)N(C)Cc4ccccc4)cc3)nc12` has an IC50 of 4.3 µM. For `O=C1c2cccc3cccc(c23)C(=O)N1CCN1CCN(CC(O)COc2ccc3c(c2)OCO3)CC1` (stereo unspecified), the IC50 was 6.68 µM. Compound `COc1ccc2sc(N(CCCN(C)C)C(=O)c3ccc(S(=O)(=O)N(C)Cc4ccccc4)cc3)nc2c1` has an IC50 of 5.89 µM. `CCc1ccc(OCC(O)CN2CCC(CN3C(=O)c4cccc5cccc(c45)C3=O)CC2)cc1` (stereo unspecified) gave an IC50 of 8.76 µM.
